# Paper PMC5218480 (PLoS ONE, 2017)
# System: MV-4-11 cells
# Experiment: Gene expression microarray analysis (Affymetrix PrimeView) and GSEA
# Assay type: cell-based, human
# Set-up: RFU PODN (11730768_x_at) / Fold change /veh PODN (11730768_x_at) / RFU LINC00158 (11744669_a_at) / Fold change /veh LINC00158 (11744669_a_at) / RFU DUSP10 (11751237_a_at) / Fold change /veh DUSP10 (11751237_a_at) / RFU ID3 (11757404_x_at) / Fold change /veh ID3 (11757404_x_at) / RFU PLEKHG5 (11737974_s_at) / Fold change /veh PLEKHG5 (11737974_s_at) / RFU LRRC4B (11730491_at) / Fold change /veh LRRC4B (11730491_at) / RFU GIMAP4 (11747438_a_at) / Fold change /veh GIMAP4 (11747438_a_at) / RFU KRT8 (11758183_x_at) / Fold change /veh KRT8 (11758183_x_at) / RFU CNN1 (11734310_a_at) / Fold change /veh CNN1 (11734310_a_at) / RFU VPS37D (11726825_at) / Fold change /veh VPS37D (11726825_at) / RFU C10orf10 (11716522_x_at) / Fold change /veh C10orf10 (11716522_x_at) / RFU KIR2DL2 /// KIR2DL4 /// KIR2DL5A /// KIR2DL5B /// KIR2DS1 /// KIR2DS2 /// KIR2DS3 /// KIR2DS4 /// KIR3DL3 /// KIR3DL3 /// KIR3DS1 (11738374_at) / Fold change /veh KIR2DL2 /// KIR2DL4 /// KIR2DL5A /// KIR2DL5B /// KIR2DS1 /// KIR2DS2 /// KIR2DS3 /// KIR2DS4 /// KIR3DL3 /// KIR3DL3 /// KIR3DS1 (11738374_at) / RFU C1QL1 (11718748_at) / Fold change /veh C1QL1 (11718748_at) / RFU TMPRSS4 (11747572_a_at) / Fold change /veh TMPRSS4 (11747572_a_at) / RFU HAMP (11756126_x_at) / Fold change /veh HAMP (11756126_x_at) / RFU RNFT2 (11725882_a_at) / Fold change /veh RNFT2 (11725882_a_at) / RFU NR4A2 (11747474_a_at) / Fold change /veh NR4A2 (11747474_a_at) / RFU ABCC12 (11746883_a_at) / Fold change /veh ABCC12 (11746883_a_at) / RFU TMEM136 (11760407_x_at) / Fold change /veh TMEM136 (11760407_x_at) / RFU CLDN22 /// WWC2 (11732394_at) / Fold change /veh CLDN22 /// WWC2 (11732394_at) / RFU HLA-DPB1 (11760878_x_at) / Fold change /veh HLA-DPB1 (11760878_x_at) / RFU SPINT1 (11716480_a_at) / Fold change /veh SPINT1 (11716480_a_at) / RFU GAP43 (11754022_s_at) / Fold change /veh GAP43 (11754022_s_at) / RFU A4GNT (11735810_at) / Fold change /veh A4GNT (11735810_at) / RFU PRB3 (11715151_x_at) / Fold change /veh PRB3 (11715151_x_at) / RFU TUBB4B (11761932_at) / Fold change /veh TUBB4B (11761932_at) / RFU CAPN14 (11732068_a_at) / Fold change /veh CAPN14 (11732068_a_at) / RFU TMCC2 (11721928_a_at) / Fold change /veh TMCC2 (11721928_a_at) / RFU IRGQ (11745062_a_at) / Fold change /veh IRGQ (11745062_a_at) / RFU FAM174B (11720279_a_at) / Fold change /veh FAM174B (11720279_a_at) / RFU TMPRSS4 (11748680_a_at) / Fold change /veh TMPRSS4 (11748680_a_at) / RFU FAM212B (11763350_a_at) / Fold change /veh FAM212B (11763350_a_at) / RFU PLEKHG5 (11743358_a_at) / Fold change /veh PLEKHG5 (11743358_a_at) / RFU ZSCAN30 (11745921_a_at) / Fold change /veh ZSCAN30 (11745921_a_at) / RFU CMKLR1 (11741424_a_at) / Fold change /veh CMKLR1 (11741424_a_at) / RFU LOC101060620 /// MAPK8IP1 (11723275_at) / Fold change /veh LOC101060620 /// MAPK8IP1 (11723275_at) / RFU SPTSSB (11747773_x_at) / Fold change /veh SPTSSB (11747773_x_at) / RFU PRSS12 (11739890_at) / Fold change /veh PRSS12 (11739890_at) / RFU BIN1 (11741810_x_at) / Fold change /veh BIN1 (11741810_x_at) / RFU WNT11 (11732464_a_at) / Fold change /veh WNT11 (11732464_a_at) / RFU C10orf10 (11716521_a_at) / Fold change /veh C10orf10 (11716521_a_at) / RFU C5orf56 (11738089_at) / Fold change /veh C5orf56 (11738089_at) / RFU CYB561 (11721691_x_at) / Fold change /veh CYB561 (11721691_x_at) / RFU ANKRD19P (11752326_a_at) / Fold change /veh ANKRD19P (11752326_a_at) / RFU OR2T12 /// OR2T33 /// OR2T8 (11738714_s_at) / Fold change /veh OR2T12 /// OR2T33 /// OR2T8 (11738714_s_at) / RFU VCAN (11748164_a_at) / Fold change /veh VCAN (11748164_a_at) / RFU JSRP1 (11732532_at) / Fold change /veh JSRP1 (11732532_at) / RFU KRTAP10-11 (11738290_x_at) / Fold change /veh KRTAP10-11 (11738290_x_at) / RFU MYO3A (11730013_a_at) / Fold change /veh MYO3A (11730013_a_at) / RFU EBF3 (11725865_a_at) / Fold change /veh EBF3 (11725865_a_at) / RFU CAMK2N1 (11719241_x_at) / Fold change /veh CAMK2N1 (11719241_x_at) / RFU C5orf56 (11738088_a_at) / Fold change /veh C5orf56 (11738088_a_at) / RFU OLFML3 (11715873_a_at) / Fold change /veh OLFML3 (11715873_a_at) / RFU LOC100653217 /// NTM (11731650_a_at) / Fold change /veh LOC100653217 /// NTM (11731650_a_at) / RFU MAPK11 (11762145_a_at) / Fold change /veh MAPK11 (11762145_a_at) / RFU FIZ1 (11724087_x_at) / Fold change /veh FIZ1 (11724087_x_at) / RFU OASL (11726364_x_at) / Fold change /veh OASL (11726364_x_at) / RFU SOX15 (11748057_x_at) / Fold change /veh SOX15 (11748057_x_at) / RFU CD79A (11719716_a_at) / Fold change /veh CD79A (11719716_a_at) / RFU HIST1H1D (11736915_at) / Fold change /veh HIST1H1D (11736915_at) / RFU CASKIN2 (11723855_a_at) / Fold change /veh CASKIN2 (11723855_a_at) / RFU LOC730098 (11760151_x_at) / Fold change /veh LOC730098 (11760151_x_at) / RFU OR4N2 (11742367_at) / Fold change /veh OR4N2 (11742367_at) / RFU PRRT2 (11749266_a_at) / Fold change /veh PRRT2 (11749266_a_at) / RFU SNX32 (11753110_a_at) / Fold change /veh SNX32 (11753110_a_at) / RFU CDHR5 (11726645_a_at) / Fold change /veh CDHR5 (11726645_a_at) / RFU RCAN1 (11760418_a_at) / Fold change /veh RCAN1 (11760418_a_at) / RFU FAM167A (11723789_a_at) / Fold change /veh FAM167A (11723789_a_at) / RFU FAM26E (11764081_at) / Fold change /veh FAM26E (11764081_at) / RFU ISYNA1 (11749810_s_at) / Fold change /veh ISYNA1 (11749810_s_at) / RFU ACY1 (11761880_at) / Fold change /veh ACY1 (11761880_at) / RFU 11764098_at / Fold change /veh 11764098_at / RFU SAMD14 (11745864_x_at) / Fold change /veh SAMD14 (11745864_x_at) / RFU NPB (11741838_a_at) / Fold change /veh NPB (11741838_a_at) / RFU TMPRSS6 (11731388_a_at) / Fold change /veh TMPRSS6 (11731388_a_at) / RFU KRTAP10-2 (11738614_at) / Fold change /veh KRTAP10-2 (11738614_at) / RFU ARHGAP8 /// PRR5-ARHGAP8 (11727945_x_at) / Fold change /veh ARHGAP8 /// PRR5-ARHGAP8 (11727945_x_at) / RFU KRTAP5-7 /// NADSYN1 (11734609_at) / Fold change /veh KRTAP5-7 /// NADSYN1 (11734609_at) / RFU RASL12 (11751679_a_at) / Fold change /veh RASL12 (11751679_a_at) / RFU CDKN2B (11736163_a_at) / Fold change /veh CDKN2B (11736163_a_at) / RFU PRF1 (11729649_at) / Fold change /veh PRF1 (11729649_at) / RFU, ZNF638 /// ZNF638-IT1 / Fold change vs veh, ZNF638 /// ZNF638-IT1 / RFU, PANK3 / Fold change vs veh, PANK3 / RFU, SH3YL1 / Fold change vs veh, SH3YL1 / RFU, ZEB2 / Fold change vs veh, ZEB2 / RFU, NRIP1 / Fold change vs veh, NRIP1 / RFU, PTTG1IP / Fold change vs veh, PTTG1IP / RFU, CAPN2 / Fold change vs veh, CAPN2 / RFU, MED14 / Fold change vs veh, MED14 / RFU, SNORA58 / Fold change vs veh, SNORA58 / RFU, C1orf63 / Fold change vs veh, C1orf63 / RFU, LRRFIP1 / Fold change vs veh, LRRFIP1 / RFU, NDUFAF7 / Fold change vs veh, NDUFAF7 / RFU, SLC12A2 / Fold change vs veh, SLC12A2 / RFU, IBTK / Fold change vs veh, IBTK / RFU, ESF1 / Fold change vs veh, ESF1 / Fold change vs veh, TMEM50B / RFU, TAOK1 / Fold change vs veh, TAOK1 / RFU, ACBD3 / Fold change vs veh, ACBD3 / RFU, TMA16 / Fold change vs veh, TMA16 / RFU, RWDD3 / Fold change vs veh, RWDD3 / RFU, BCAT1 / Fold change vs veh, BCAT1 / RFU, EDEM3 / Fold change vs veh, EDEM3 / RFU, TMEM33 / Fold change vs veh, TMEM33 / RFU, WDR75 / Fold change vs veh, WDR75 / RFU, AHCTF1 / Fold change vs veh, AHCTF1 / RFU, TFRC / Fold change vs veh, TFRC / RFU, ZDHHC17 / Fold change vs veh, ZDHHC17 / RFU, NOM1 / Fold change vs veh, NOM1 / RFU, ARL8B / Fold change vs veh, ARL8B / RFU, ZBTB11 / Fold change vs veh, ZBTB11 / RFU, TAMM41 / Fold change vs veh, TAMM41 / RFU, KIAA1704 /// LOC100996395 / Fold change vs veh, KIAA1704 /// LOC100996395 / RFU, ING1 / Fold change vs veh, ING1 / RFU, TRMT61B / Fold change vs veh, TRMT61B / RFU, FUBP3 / Fold change vs veh, FUBP3 / RFU, TP53 / Fold change vs veh, TP53 / RFU, TNKS2 / Fold change vs veh, TNKS2 / RFU, ZFP14 / Fold change vs veh, ZFP14 / RFU, ACTR2 / Fold change vs veh, ACTR2 / RFU, PPP3R1 / Fold change vs veh, PPP3R1 / RFU, PIK3R1 / Fold change vs veh, PIK3R1 / RFU, HNRNPA1 / Fold change vs veh, HNRNPA1 / RFU, RNF170 / Fold change vs veh, RNF170 / RFU, ZNF28 / Fold change vs veh, ZNF28 / RFU, RNGTT / Fold change vs veh, RNGTT / RFU, OGT / Fold change vs veh, OGT / RFU, BRD1 / Fold change vs veh, BRD1 / RFU, MARS / Fold change vs veh, MARS / RFU, ZNF655 / Fold change vs veh, ZNF655 / RFU, FAHD1 / Fold change vs veh, FAHD1 / RFU, BDP1 / Fold change vs veh, BDP1 / RFU, LRRCC1 / Fold change vs veh, LRRCC1 / RFU, ARID1A / Fold change vs veh, ARID1A / RFU, ZNF146 / Fold change vs veh, ZNF146 / RFU, ZNF330 / Fold change vs veh, ZNF330 / RFU, GPN3 / Fold change vs veh, GPN3 / RFU, C9orf123 / Fold change vs veh, C9orf123 / RFU, N4BP2L2 / Fold change vs veh, N4BP2L2 / RFU, ARFIP1 / Fold change vs veh, ARFIP1 / RFU, FAM179B / Fold change vs veh, FAM179B / RFU, BCL10 / Fold change vs veh, BCL10 / RFU, UHRF1BP1L / Fold change vs veh, UHRF1BP1L / RFU, BET1 / Fold change vs veh, BET1 / RFU, CNOT2 / Fold change vs veh, CNOT2 / RFU, ZNF268 / Fold change vs veh, ZNF268 / Fold change vs veh, ZNF507 / RFU, DGCR2 / Fold change vs veh, DGCR2 / RFU, WDSUB1 / Fold change vs veh, WDSUB1 / Fold change vs veh, HSP90B1 /// MIR3652 / RFU, ADSS / Fold change vs veh, ADSS / RFU, GK / Fold change vs veh, GK / RFU, ZNF148 / Fold change vs veh, ZNF148 / RFU, TAF9 / Fold change vs veh, TAF9 / RFU, SLC1A5 / Fold change vs veh, SLC1A5 / RFU, SLMO2 / Fold change vs veh, SLMO2 / RFU, ABCC4 / Fold change vs veh, ABCC4 / RFU, LOC101060439 /// RAP1B / Fold change vs veh, LOC101060439 /// RAP1B / RFU, RFX7 / Fold change vs veh, RFX7 / RFU, GTPBP10 / Fold change vs veh, GTPBP10 / RFU, CNEP1R1 / Fold change vs veh, CNEP1R1 / RFU, BIVM-ERCC5 /// ERCC5 / Fold change vs veh, BIVM-ERCC5 /// ERCC5 / RFU, ILF3 / Fold change vs veh, ILF3 / RFU 11762660_at / Fold change /veh 11762660_at / RFU VCAN (11757783_s_at) / Fold change /veh VCAN (11757783_s_at) / RFU DDX43 (11728927_at) / Fold change /veh DDX43 (11728927_at) / RFU KRT8 (11758188_x_at) / Fold change /veh KRT8 (11758188_x_at) / RFU NKD1 (11759106_at) / Fold change /veh NKD1 (11759106_at) / RFU SRD5A1 (11742802_a_at) / Fold change /veh SRD5A1 (11742802_a_at) / RFU TPSAB1 /// TPSB2 (11721975_s_at) / Fold change /veh TPSAB1 /// TPSB2 (11721975_s_at) / RFU GSTM3 (11746129_a_at) / Fold change /veh GSTM3 (11746129_a_at) / RFU IL23R (11737362_x_at) / Fold change /veh IL23R (11737362_x_at) / RFU TMEM51 (11727254_a_at) / Fold change /veh TMEM51 (11727254_a_at) / RFU PIWIL2 (11732686_x_at) / Fold change /veh PIWIL2 (11732686_x_at) / RFU ORM1 (11744905_x_at) / Fold change /veh ORM1 (11744905_x_at) / RFU CCDC152 (11743942_at) / Fold change /veh CCDC152 (11743942_at) / RFU ECM1 (11717891_a_at) / Fold change /veh ECM1 (11717891_a_at) / RFU IL23R (11748794_a_at) / Fold change /veh IL23R (11748794_a_at) / RFU TNFAIP8L3 (11732012_x_at) / Fold change /veh TNFAIP8L3 (11732012_x_at) / RFU MBOAT4 (11741988_at) / Fold change /veh MBOAT4 (11741988_at) / RFU 11764193_at / Fold change /veh 11764193_at / RFU TMEM53 (11763286_at) / Fold change /veh TMEM53 (11763286_at) / RFU MAGEB2 (11727129_at) / Fold change /veh MAGEB2 (11727129_at) / RFU TMEM200A (11744735_a_at) / Fold change /veh TMEM200A (11744735_a_at) / RFU CCDC152 (11751479_a_at) / Fold change /veh CCDC152 (11751479_a_at) / RFU FAM211A (11726209_a_at) / Fold change /veh FAM211A (11726209_a_at) / RFU RGS16 (11746705_a_at) / Fold change /veh RGS16 (11746705_a_at) / RFU VCAN (11755009_s_at) / Fold change /veh VCAN (11755009_s_at) / RFU RHOB (11743442_s_at) / Fold change /veh RHOB (11743442_s_at) / RFU RGS16 (11720943_a_at) / Fold change /veh RGS16 (11720943_a_at) / RFU RGS16 (11720944_at) / Fold change /veh RGS16 (11720944_at) / RFU, VPS4B / Fold change vs veh, VPS4B / RFU, CREB1 / Fold change vs veh, CREB1 / RFU, DNAJC13 / Fold change vs veh, DNAJC13 / RFU, GNAQ / Fold change vs veh, GNAQ / RFU, CDK5R1 / Fold change vs veh, CDK5R1 / RFU, ZRANB3 / Fold change vs veh, ZRANB3 / RFU, CUL4A / Fold change vs veh, CUL4A / RFU, CCNY / Fold change vs veh, CCNY / RFU, UFL1 / Fold change vs veh, UFL1 / RFU, COG3 / Fold change vs veh, COG3 / RFU, DIAPH2 / Fold change vs veh, DIAPH2 / RFU, SKA2 / Fold change vs veh, SKA2 / RFU, AFF3 / Fold change vs veh, AFF3 / RFU, LMF1 / Fold change vs veh, LMF1 / RFU, IPO11 / Fold change vs veh, IPO11 / RFU, DFFB / Fold change vs veh, DFFB / RFU, FOXP1 / Fold change vs veh, FOXP1 / RFU, CARD8 / Fold change vs veh, CARD8 / RFU, STRN3 / Fold change vs veh, STRN3 / RFU, ADK / Fold change vs veh, ADK / RFU, RASSF2 / Fold change vs veh, RASSF2 / RFU, WIPF1 / Fold change vs veh, WIPF1 / RFU, LARP1B / Fold change vs veh, LARP1B / RFU, RASA1 / Fold change vs veh, RASA1 / RFU, RB1 / Fold change vs veh, RB1 / RFU, PPFIA1 / Fold change vs veh, PPFIA1 / RFU, MAT2A / Fold change vs veh, MAT2A / RFU, CCT5 / Fold change vs veh, CCT5 / RFU, WDR92 / Fold change vs veh, WDR92 / RFU, CUX1 / Fold change vs veh, CUX1 / RFU, TTC7A / Fold change vs veh, TTC7A / RFU, TMEM135 / Fold change vs veh, TMEM135 / RFU, DEPTOR / Fold change vs veh, DEPTOR / RFU, CPM / Fold change vs veh, CPM / RFU, DNAJB6 / Fold change vs veh, DNAJB6 / RFU, CACNA2D3 / Fold change vs veh, CACNA2D3 / RFU, DTX4 / Fold change vs veh, DTX4 / RFU, TFCP2 / Fold change vs veh, TFCP2 / RFU, GMCL1 /// GMCL1P1 / Fold change vs veh, GMCL1 /// GMCL1P1 / RFU, AEBP2 / Fold change vs veh, AEBP2 / RFU, SNHG1 /// SNORD22 /// SNORD25 /// SNORD26 /// SNORD27 /// SNORD28 /// SNORD29 /// SNORD31 / Fold change vs veh, SNHG1 /// SNORD22 /// SNORD25 /// SNORD26 /// SNORD27 /// SNORD28 /// SNORD29 /// SNORD31 / Fold change (Aza/veh), C12orf56 (ProbeSet 11735607_a_at) / Fold change (ACY-1035/veh), C12orf56 (ProbeSet 11735607_a_at) / Fold change (Aza/veh), FGFR1OP (ProbeSet 11751329_s_at) / Fold change (ACY-1035/veh), FGFR1OP (ProbeSet 11751329_s_at) / Fold change (Aza/veh), VPS36 (ProbeSet 11739960_a_at) / Fold change (ACY-1035/veh), VPS36 (ProbeSet 11739960_a_at) / RFU SYPL1 (11715823_x_at) / Fold change /veh SYPL1 (11715823_x_at) / RFU IGFBP7 (11715501_s_at) / Fold change /veh IGFBP7 (11715501_s_at) / RFU REEP3 (11722064_at) / Fold change /veh REEP3 (11722064_at) / RFU IGLL1 (11728026_x_at) / Fold change /veh IGLL1 (11728026_x_at): dose or concentration left out as unconfirmed
# Settings: ProbeSet 11747937_a_at; LIST D
smiles,measurement,value
Nc1ccc(-c2cccs2)cc1NC(=O)c1ccc2c(c1)cc(C1CC1)n2CCN1CCOCC1 [ACY-1035],"RFU, DNAJB6",348.58 RFU
